From patent US4572908A, “Dihydropyridines” (Pfizer Inc., priority 1982, dated 1986) come the findings set out here.

Molecules are shown by their SMILES.

For this test, the system named is rat aorta. Briefly: inhibition of calcium-induced contraction (change in tension) of spirally cut strips of rat aorta in K+ 45 mM saline. The following applies: 0.75 h, 45 millimolar potassium, 2 millimolar calcium, 45 minutes, read-out: IC50 (molar concentration required to reduce the response by 50%). The class given is cell-based. Here is the method: The ability of the compounds to inhibit the movement of calcium into the cell is shown by their effectiveness in reducing the response of isolated heart tissue to an increase in calcium ion concentration in vitro. The test is performed by mounting spirally cut strips of rat aorta with one end fixed and the other attached to a force transducer. The tissue is immersed in a bath of physiological saline solution containing potassium ions at a concentration of 45 millimolar and no calcium. Calcium chloride is added to the bath with a pipette to give a final calcium ion concentration of 2 millimolar. The change in tension caused by the resulting contraction of the tissue is noted. The bath is drained and replaced with fresh saline solution and, after 45 minutes, the test is repeated with the particular compound under test present in the saline solution. The concentration of compound required to reduce the response by 50% (IC50) is recorded.
The molar concentrations of the compounds required to reduce the response by 50% in the test specified on pages 16-17 are given below (1M=1 gm.Mole/liter).

For `CCOC(=O)C1=C(COCCNc2nc(C(C)=O)c[nH]2)NC(C)=C(C(=O)OC)C1c1cccc(Cl)c1Cl` (stereo not shown) [Example 91B, 2-[2-(4-acetylimidazol-2-ylamino)ethoxymethyl]-4-(2,3-dichlorophenyl)-3-ethoxycarbonyl-5-methoxycarbonyl-6-methyl-1,4-dihydropyridine], the IC50 turned out to be 2.5 nM.
